According to patent US7141595B2, “Amino benzothiazole compounds with NOS inhibitory activity” (Neuraxon Inc., priority 2002, dated 2006):
Counter-ions that a name gives are not always drawn.

How the values were obtained:
[1] = target: T1, iNOS (UniProt P29477); assay: iNOS enzyme assay (hemoglobin capture assay); format: biochemical; details: initial velocity, read-out: IC50 of NOS, iNOS
T1 sequence (P29477 1-1144): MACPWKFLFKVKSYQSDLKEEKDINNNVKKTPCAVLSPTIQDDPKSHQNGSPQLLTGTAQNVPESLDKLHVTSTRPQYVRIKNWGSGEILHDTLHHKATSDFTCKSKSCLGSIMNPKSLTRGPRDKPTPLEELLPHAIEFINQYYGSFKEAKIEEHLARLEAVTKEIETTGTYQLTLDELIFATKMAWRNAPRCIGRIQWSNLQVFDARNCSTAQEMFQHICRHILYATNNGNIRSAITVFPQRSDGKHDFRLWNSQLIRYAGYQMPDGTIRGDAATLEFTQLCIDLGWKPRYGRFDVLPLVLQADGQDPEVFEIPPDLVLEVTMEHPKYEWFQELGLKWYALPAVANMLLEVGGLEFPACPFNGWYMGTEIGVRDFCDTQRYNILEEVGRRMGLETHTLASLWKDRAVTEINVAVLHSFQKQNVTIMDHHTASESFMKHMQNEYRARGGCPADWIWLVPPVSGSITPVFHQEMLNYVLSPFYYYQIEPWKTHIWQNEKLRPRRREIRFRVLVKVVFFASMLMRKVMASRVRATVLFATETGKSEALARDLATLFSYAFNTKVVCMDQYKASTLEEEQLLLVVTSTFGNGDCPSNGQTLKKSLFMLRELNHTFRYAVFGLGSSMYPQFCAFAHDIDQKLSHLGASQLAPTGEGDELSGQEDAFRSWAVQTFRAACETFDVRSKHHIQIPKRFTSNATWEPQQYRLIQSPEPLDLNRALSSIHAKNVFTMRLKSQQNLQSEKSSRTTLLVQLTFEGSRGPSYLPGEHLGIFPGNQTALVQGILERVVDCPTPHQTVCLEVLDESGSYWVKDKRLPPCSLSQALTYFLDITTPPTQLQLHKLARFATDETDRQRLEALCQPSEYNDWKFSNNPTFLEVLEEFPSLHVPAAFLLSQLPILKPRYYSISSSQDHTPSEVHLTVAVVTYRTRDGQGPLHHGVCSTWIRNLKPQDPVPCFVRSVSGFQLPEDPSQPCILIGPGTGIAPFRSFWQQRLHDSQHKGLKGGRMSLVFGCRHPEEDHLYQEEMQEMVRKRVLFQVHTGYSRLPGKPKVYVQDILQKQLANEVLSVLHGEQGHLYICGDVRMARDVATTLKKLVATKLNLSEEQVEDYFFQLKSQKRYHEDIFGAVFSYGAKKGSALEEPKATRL
Procedure: (§1) The reaction mixture for iNOS contained 10 mM of L-arginine, […], 6.5 mM BH4 and 3 mM oxyhemoglobin in 100 mM Hepes (pH 7.5). All assays were in a final volume of […] and were initiated with enzyme.
(§2) IC50 and percent inhibition of NOS by the compounds of the invention were determined under initial velocity measurement condition with hemoglobin capture assay as described above using varying concentrations of the compounds of the invention.

[2] = target: T2, eNOS (UniProt P29473); assay: eNOS enzyme assay (hemoglobin capture assay); format: biochemical; details: initial velocity, read-out: IC50 of NOS, eNOS
T2 sequence (P29473 1-1205): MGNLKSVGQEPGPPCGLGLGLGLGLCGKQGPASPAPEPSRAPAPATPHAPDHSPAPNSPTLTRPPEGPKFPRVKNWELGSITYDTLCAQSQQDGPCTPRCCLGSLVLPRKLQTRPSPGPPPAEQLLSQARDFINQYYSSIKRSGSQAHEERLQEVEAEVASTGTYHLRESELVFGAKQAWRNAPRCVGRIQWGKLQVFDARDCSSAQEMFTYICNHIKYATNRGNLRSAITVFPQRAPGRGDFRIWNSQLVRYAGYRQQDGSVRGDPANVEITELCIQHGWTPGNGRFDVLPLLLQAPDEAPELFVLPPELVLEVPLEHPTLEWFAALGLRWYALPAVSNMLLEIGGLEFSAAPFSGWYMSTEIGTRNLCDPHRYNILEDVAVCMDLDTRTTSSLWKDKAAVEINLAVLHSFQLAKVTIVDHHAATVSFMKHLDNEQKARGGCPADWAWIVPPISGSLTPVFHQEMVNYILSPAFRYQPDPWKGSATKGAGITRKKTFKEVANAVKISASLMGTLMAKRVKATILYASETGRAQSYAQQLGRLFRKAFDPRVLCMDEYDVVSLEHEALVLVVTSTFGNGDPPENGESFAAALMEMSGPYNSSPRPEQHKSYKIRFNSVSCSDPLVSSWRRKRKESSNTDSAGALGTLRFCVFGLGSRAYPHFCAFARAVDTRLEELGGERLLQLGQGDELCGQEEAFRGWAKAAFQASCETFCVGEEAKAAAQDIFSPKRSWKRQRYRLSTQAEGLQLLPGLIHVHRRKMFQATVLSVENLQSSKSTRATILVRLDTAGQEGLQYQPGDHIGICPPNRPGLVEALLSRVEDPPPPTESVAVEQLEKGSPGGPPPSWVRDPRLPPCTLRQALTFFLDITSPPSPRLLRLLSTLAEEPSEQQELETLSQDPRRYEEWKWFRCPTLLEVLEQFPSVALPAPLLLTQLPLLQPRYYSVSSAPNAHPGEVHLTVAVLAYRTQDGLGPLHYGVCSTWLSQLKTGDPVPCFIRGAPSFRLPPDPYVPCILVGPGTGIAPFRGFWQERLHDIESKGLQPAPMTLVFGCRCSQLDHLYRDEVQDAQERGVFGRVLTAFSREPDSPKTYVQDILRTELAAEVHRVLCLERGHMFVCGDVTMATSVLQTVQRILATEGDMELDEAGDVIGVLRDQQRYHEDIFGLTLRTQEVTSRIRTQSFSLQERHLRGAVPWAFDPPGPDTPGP
Procedure: The generation of nitric oxide by NOS was measured using the hemoglobin capture assay (Proc. Natl. Acad. Sci., U.S.A. 1990, 87, 714; Huang et al. J. Med. Chem. 2000, 43, 2938). An assay mixture for nNOS contained 10 mM L-arginine, 1.6 mM CaCl2, […] calmoduline, […], 6.5 mM BH4 and 3 mM oxyhemoglobin in 100 mM Hepes (pH 7.5). The reaction mixture for iNOS contained 10 mM of L-arginine, […], 6.5 mM BH4 and 3 mM oxyhemoglobin in 100 mM Hepes (pH 7.5). All assays were in a final volume of […] and were initiated with enzyme. Nitric oxide reacts with oxyhemoglobin to yield methehemoglobin which is detected at 401 nm (ε=19,700 M^−1cm^−1) on a Perkin-Elmer Lamda 10 UV/vis spectrophotometer.
as §2

[3] = target: nNOS (UniProt P29476); assay: nNOS enzyme assay (hemoglobin capture assay); format: biochemical; details: initial velocity, read-out: IC50 of NOS, nNOS
Procedure: as §1, §2

[4] = test system: Rat cortical neuronal cultures; assay: Neuroprotection of rat cortical cells against NMDA challenge; format: cell-based; details: 25 μM NMDA 30 minutes; 60-minute pre-incubation; % cell death by propidium iodide after 24 hrs
Procedure: Rat cortical neuronal cultures were exposed for 30 minutes to 25 μM NMDA in buffer with or without the test compounds according to previously reported procedures (J. Neurosci. 2000 October 1; 20(19):7183–92). Test compounds were added for a 60-minute pre-incubation period in order to maximize the chance of seeing neuroprotection. After 24 hrs cultures were treated with propidium iodide and the % cell death determined.

| IC50 [1] | IC50 [2] | IC50 [3] | SMILES | neuroprotection during NMDA challenge [4] |
| --- | --- | --- | --- | --- |
| 327 µM | 83.3 µM | 4.2 µM | CSC(=N)Nc1ccc2nc(N)sc2c1 [Example 4, N-(2-Amino-benzothiazol-6-yl)-2-methylthiocarboximidamide] | – |
| – | 119 µM | – | N=C(Nc1ccc2nc(N)sc2c1)c1cccs1 [Example 9, N-(2-Amino-benzothiazol-6-yl)-2-thiophenecarboximidamide] | – |
| 125 µM | 100 µM | 11.9 µM | N=C(Nc1ccc2nc(NCCN3CCCC3)sc2c1)c1cccs1 [Example 13, N-[2-(2-pyrrolidin-1-ylethylamino)-benzothiazol-6-yl]-2-thiophenecarboximidamide] | – |
| 275 µM | 94 µM | 32.1 µM | Nc1nc2cc(NC(=S)NC(=O)c3ccccc3)ccc2s1 [Example 17, 1-(2-Amino-benzothiazol-5-yl)-3-benzoyl-thiourea] | – |
| 123 µM | 145 µM | 57.8 µM | NC(=S)Nc1ccc2sc(N)nc2c1 [Example 18, (2-Amino-benzothiazol-5-yl)-thiourea] | – |
| 73 µM | 169 µM | – | N=C(Nc1ccc2sc(N)nc2c1)c1cccs1 [Example 20, N-(2-Amino-benzothiazol-5-yl)-thiophene-2-carboxamidine hydrobromide] | – |
| – | – | – | N=C(Nc1ccc2nc(NCCc3cnc[nH]3)sc2c1)c1cccs1 [Example 36(e), N-{2-[2-(3H-Imidazol-4-yl)-ethylamino]-benzothiazol-6-yl}-thiophene-2-carboxamidine] | neuroprotection observed |
| 91 µM | 110 µM | 1.46 µM | N=C(Nc1ccc2nc(NCCc3ccc(Br)cc3)sc2c1)c1cccs1 [Example 36b, N-{2-[2-(4-Bromo-phenyl)-ethylamino]-benzothiazol-6-yl}-thiophene-2-carboxamidine] | – |
| 163 µM | 210 µM | 1.6 µM | N=C(Nc1ccc2nc(NC3CCN(Cc4ccccc4)CC3)sc2c1)c1cccs1 [Example 36d, N-[2-(1-Benzyl-piperidin-4-ylamino)-benzothiazol-6-yl]-thiophene-2-carboxamidine] | – |
| > 300 µM | > 300 µM | – | N=C(Nc1ccc2nc(NCCN3CCOCC3)sc2c1)c1cccs1 [Example 36f, N-[2-(2-Morpholin-4-yl-ethylamino)-benzothiazol-6-yl]-thiophene-2-carboxamidine] | neuroprotection observed |
